Source: PubChem BioAssay (NCI)
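Assay format: 96-well plates, 48-hour exposure. GI50 = concentration required for 50% inhibition of growth. At the TGI there is no net growth.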

Columns and labels:
Assay in all cases: NCI tumour cell line growth inhibition, 48 h
HCT-15 colon = tested on: HCT-15 colon
HT29 colon = tested on: HT29 colon
M14 melanoma = tested on: M14 melanoma
OVCAR-3 ovarian = tested on: OVCAR-3 ovarian
OVCAR-5 ovarian = tested on: OVCAR-5 ovarian
RPMI-8226 leukemia = tested on: RPMI-8226 leukemia
SF-295 CNS = tested on: SF-295 CNS
SNB-75 CNS = tested on: SNB-75 CNS
UO-31 renal = tested on: UO-31 renal
BT-549 breast = tested on: BT-549 breast

Cc1cccc(C)c1NC(=O)/C(=N/NC(N)=S)C(C)C(=O)c1ccc(Cl)cc1 (stereo unspecified)
TGI (HCT-15 colon): > 100 µM
TGI (HT29 colon): > 100 µM
TGI (M14 melanoma): > 100 µM
TGI (OVCAR-3 ovarian): > 100 µM
TGI (OVCAR-5 ovarian): > 100 µM
TGI (RPMI-8226 leukemia): > 100 µM
TGI (SF-295 CNS): > 100 µM
TGI (SNB-75 CNS): > 100 µM
TGI (UO-31 renal): > 100 µM

O=C1/C(=C/c2ccccc2[N+](=O)[O-])Cc2ccccc21
GI50 (BT-549 breast): 1.83 µM
TGI (BT-549 breast): 4.49 µM
GI50 (HCT-15 colon): 1.66 µM
TGI (HCT-15 colon): 4.71 µM
GI50 (HT29 colon): 0.931 µM
TGI (HT29 colon): 3.15 µM
GI50 (M14 melanoma): 1.97 µM
TGI (M14 melanoma): 3.96 µM
GI50 (OVCAR-3 ovarian): 1.72 µM
TGI (OVCAR-3 ovarian): 3.2 µM
GI50 (OVCAR-5 ovarian): 2.19 µM
TGI (OVCAR-5 ovarian): 5.36 µM
GI50 (RPMI-8226 leukemia): 2.44 µM
TGI (RPMI-8226 leukemia): 7.84 µM
GI50 (UO-31 renal): 1.21 µM
TGI (UO-31 renal): 2.68 µM

CN(C)CCCn1c(=O)c2ccccc2c2ccccc21
GI50 (BT-549 breast): 29.5 µM
TGI (BT-549 breast): 73.9 µM
GI50 (HCT-15 colon): 13.8 µM
TGI (HCT-15 colon): > 100 µM
GI50 (HT29 colon): 5.74 µM
TGI (HT29 colon): 33.4 µM
GI50 (M14 melanoma): 14.4 µM
TGI (M14 melanoma): 29.6 µM
GI50 (OVCAR-3 ovarian): 20.4 µM
TGI (OVCAR-3 ovarian): 52.4 µM
GI50 (OVCAR-5 ovarian): 22.6 µM
TGI (OVCAR-5 ovarian): 69.7 µM
GI50 (RPMI-8226 leukemia): 26.9 µM
TGI (RPMI-8226 leukemia): 77.7 µM
GI50 (SF-295 CNS): 7.69 µM
TGI (SF-295 CNS): 32.8 µM
GI50 (SNB-75 CNS): 13.9 µM
TGI (SNB-75 CNS): 28.6 µM

CC(=O)OC12C=C(C)C(C(C)C1)C1C(=O)N(CCN3CCOCC3)C(=O)C12 (stereo unspecified)
GI50 (BT-549 breast): > 100 µM
TGI (BT-549 breast): > 100 µM
GI50 (HCT-15 colon): > 100 µM
TGI (HCT-15 colon): > 100 µM
GI50 (HT29 colon): > 100 µM
TGI (HT29 colon): > 100 µM
GI50 (M14 melanoma): > 100 µM
TGI (M14 melanoma): > 100 µM
GI50 (OVCAR-5 ovarian): > 100 µM
TGI (OVCAR-5 ovarian): > 100 µM
GI50 (SF-295 CNS): > 100 µM
TGI (SF-295 CNS): > 100 µM
GI50 (SNB-75 CNS): > 100 µM
TGI (SNB-75 CNS): > 100 µM
GI50 (UO-31 renal): > 100 µM
TGI (UO-31 renal): > 100 µM

CCOC(=O)C1C(=S)NC(=O)C1C#N (stereo unspecified)
TGI (HCT-15 colon): > 100 µM
TGI (HT29 colon): > 100 µM
TGI (M14 melanoma): > 100 µM
TGI (OVCAR-3 ovarian): > 100 µM
TGI (OVCAR-5 ovarian): > 100 µM
TGI (RPMI-8226 leukemia): > 100 µM
TGI (SF-295 CNS): > 100 µM
TGI (SNB-75 CNS): > 100 µM
TGI (UO-31 renal): > 100 µM

N#CC1(C(N)=O)C(c2ccc(Cl)cc2)CC(=O)CC1c1ccc(Cl)cc1 (stereo unspecified)
GI50 (BT-549 breast): 14.6 µM
TGI (BT-549 breast): 27.7 µM
GI50 (HCT-15 colon): 16.8 µM
TGI (HCT-15 colon): 34.3 µM
GI50 (HT29 colon): 15.5 µM
TGI (HT29 colon): 29.5 µM
GI50 (M14 melanoma): 16.2 µM
TGI (M14 melanoma): 29.7 µM
GI50 (OVCAR-3 ovarian): 15.8 µM
TGI (OVCAR-3 ovarian): 33.4 µM
GI50 (OVCAR-5 ovarian): 16.4 µM
TGI (OVCAR-5 ovarian): 33.1 µM
GI50 (RPMI-8226 leukemia): 18.1 µM
TGI (RPMI-8226 leukemia): 50.7 µM
GI50 (SF-295 CNS): 15 µM
TGI (SF-295 CNS): 33.4 µM
GI50 (UO-31 renal): 16.3 µM
TGI (UO-31 renal): 32 µM

COc1cc2c3c(n(C)c(=O)c2cc1OC)-c1cc2c(cc1/C3=C\CCCCN1C(=O)c3ccccc3C1=O)OCO2
GI50 (HCT-15 colon): 14.8 µM
TGI (HCT-15 colon): 50.5 µM
GI50 (HT29 colon): 18 µM
TGI (HT29 colon): > 100 µM
GI50 (M14 melanoma): 38.4 µM
TGI (M14 melanoma): > 100 µM
GI50 (OVCAR-3 ovarian): 38.1 µM
TGI (OVCAR-3 ovarian): > 100 µM
GI50 (OVCAR-5 ovarian): 74 µM
TGI (OVCAR-5 ovarian): > 100 µM
GI50 (RPMI-8226 leukemia): 8.5 µM
TGI (RPMI-8226 leukemia): > 100 µM
GI50 (SF-295 CNS): 11 µM
TGI (SF-295 CNS): 68.1 µM
GI50 (SNB-75 CNS): 28.5 µM
TGI (SNB-75 CNS): > 100 µM

COc1ccccc1-c1cc(=O)c2cc(C)cnc2[nH]1
TGI (BT-549 breast): > 100 µM
TGI (HCT-15 colon): > 100 µM
TGI (HT29 colon): 84.5 µM
TGI (M14 melanoma): > 100 µM
GI50 (OVCAR-3 ovarian): 19.5 µM
TGI (OVCAR-3 ovarian): 60.2 µM
TGI (OVCAR-5 ovarian): > 100 µM
TGI (RPMI-8226 leukemia): > 100 µM
GI50 (SF-295 CNS): 31.1 µM
TGI (SF-295 CNS): > 100 µM
TGI (UO-31 renal): > 100 µM

Fc1ccc(/C=N/n2c(-c3ccc(F)c(Cl)c3)nn(CNc3ccccc3C(F)(F)F)c2=S)cc1
GI50 (HCT-15 colon): 79.4 µM
TGI (HCT-15 colon): > 100 µM
GI50 (HT29 colon): 94.4 µM
TGI (HT29 colon): > 100 µM
GI50 (M14 melanoma): 43.1 µM
TGI (M14 melanoma): > 100 µM
GI50 (OVCAR-3 ovarian): 53.9 µM
TGI (OVCAR-3 ovarian): > 100 µM
GI50 (OVCAR-5 ovarian): > 100 µM
TGI (OVCAR-5 ovarian): > 100 µM
GI50 (RPMI-8226 leukemia): 38.6 µM
TGI (RPMI-8226 leukemia): > 100 µM
GI50 (SF-295 CNS): 42.6 µM
TGI (SF-295 CNS): > 100 µM
GI50 (SNB-75 CNS): > 100 µM
TGI (SNB-75 CNS): > 100 µM
GI50 (UO-31 renal): 34.8 µM
TGI (UO-31 renal): > 100 µM

O=C(NC1CCCCC1)NS(=O)(=O)c1ccc2c(c1)CCC2
TGI (HCT-15 colon): > 100 µM
TGI (M14 melanoma): > 100 µM
TGI (OVCAR-3 ovarian): > 100 µM
TGI (OVCAR-5 ovarian): > 100 µM
TGI (RPMI-8226 leukemia): > 100 µM
TGI (SF-295 CNS): > 100 µM
TGI (SNB-75 CNS): > 100 µM
TGI (UO-31 renal): > 100 µM

COc1cc(N2C(=O)[C@H](O)C2c2ccc(SC)cc2)cc(OC)c1OC (stereo partly specified)
GI50 (BT-549 breast): < 0.01 µM
TGI (BT-549 breast): 0.0835 µM
GI50 (HCT-15 colon): 0.0115 µM
TGI (HCT-15 colon): > 100 µM
GI50 (HT29 colon): < 0.01 µM
TGI (HT29 colon): 0.0887 µM
GI50 (M14 melanoma): < 0.01 µM
TGI (M14 melanoma): 0.0198 µM
GI50 (OVCAR-3 ovarian): < 0.01 µM
TGI (OVCAR-3 ovarian): 0.0138 µM
GI50 (OVCAR-5 ovarian): 0.0237 µM
TGI (OVCAR-5 ovarian): > 100 µM
GI50 (RPMI-8226 leukemia): < 0.01 µM
TGI (RPMI-8226 leukemia): 14.6 µM
GI50 (SF-295 CNS): < 0.01 µM
TGI (SF-295 CNS): 26.1 µM
GI50 (SNB-75 CNS): < 0.01 µM
TGI (SNB-75 CNS): > 100 µM

Cc1c(/C=N/N=C/c2[nH]c(C(=O)OC(C)(C)C)c(C)c2C)[nH]c(C(=O)OC(C)(C)C)c1C
TGI (HCT-15 colon): > 100 µM
TGI (HT29 colon): > 100 µM
TGI (M14 melanoma): > 100 µM
TGI (OVCAR-3 ovarian): > 100 µM
TGI (OVCAR-5 ovarian): > 100 µM
TGI (RPMI-8226 leukemia): > 100 µM
TGI (SF-295 CNS): > 100 µM
TGI (SNB-75 CNS): 88.1 µM
TGI (UO-31 renal): > 100 µM

CCCCCCCCCCCCCCCCCC1=NCCN1CCOC1=C(Cl)C(=O)c2ccccc2C1=O
GI50 (BT-549 breast): 2.46 µM
TGI (BT-549 breast): 6.12 µM
GI50 (HT29 colon): 2.58 µM
TGI (HT29 colon): 6.13 µM
GI50 (M14 melanoma): 1.84 µM
TGI (M14 melanoma): 3.39 µM
GI50 (OVCAR-3 ovarian): 1.85 µM
TGI (OVCAR-3 ovarian): 3.34 µM
GI50 (OVCAR-5 ovarian): 2.29 µM
TGI (OVCAR-5 ovarian): 5.27 µM
GI50 (RPMI-8226 leukemia): 2.17 µM
TGI (RPMI-8226 leukemia): 5.28 µM
GI50 (SNB-75 CNS): 2.2 µM
TGI (SNB-75 CNS): 8.54 µM
GI50 (UO-31 renal): 1.37 µM
TGI (UO-31 renal): 2.77 µM

O=C1c2ccccc2-c2cc([N+](=O)[O-])c([N+](=O)[O-])cc21
TGI (BT-549 breast): 3.79 µM
TGI (HT29 colon): 3.87 µM
TGI (M14 melanoma): 3.43 µM
TGI (OVCAR-3 ovarian): 1.01 µM
TGI (OVCAR-5 ovarian): 5.41 µM
TGI (RPMI-8226 leukemia): 6.23 µM
TGI (SF-295 CNS): 3.08 µM
TGI (SNB-75 CNS): 3.39 µM
TGI (UO-31 renal): 3.07 µM

O=C1C(=C([O-])c2ccccc2)C(=O)c2ccccc21.O=C1C(=C([O-])c2ccccc2)C(=O)c2ccccc21.[Fe+2]
GI50 (HT29 colon): > 100 µM
TGI (HT29 colon): > 100 µM
GI50 (M14 melanoma): > 100 µM
TGI (M14 melanoma): > 100 µM
GI50 (OVCAR-3 ovarian): 89.5 µM
TGI (OVCAR-3 ovarian): > 100 µM
GI50 (OVCAR-5 ovarian): > 100 µM
TGI (OVCAR-5 ovarian): > 100 µM
GI50 (RPMI-8226 leukemia): 65.7 µM
TGI (RPMI-8226 leukemia): > 100 µM
GI50 (SF-295 CNS): 44 µM
TGI (SF-295 CNS): > 100 µM
GI50 (SNB-75 CNS): 61.5 µM
TGI (SNB-75 CNS): > 100 µM
GI50 (UO-31 renal): 44.8 µM
TGI (UO-31 renal): > 100 µM

CC#CCC1CCC(OCC)=CC1=O (stereo unspecified)
TGI (HCT-15 colon): > 100 µM
TGI (HT29 colon): > 100 µM
TGI (M14 melanoma): > 100 µM
TGI (OVCAR-3 ovarian): > 100 µM
TGI (OVCAR-5 ovarian): > 100 µM
TGI (RPMI-8226 leukemia): > 100 µM
TGI (SF-295 CNS): > 100 µM
TGI (SNB-75 CNS): > 100 µM
TGI (UO-31 renal): > 100 µM
